Values of other authors, collected in patent US10155751B2, “Pyrazolyl-substituted heteroaryls and their use as medicaments” (Boehringer Ingelheim International GmbH, priority 2015, dated 2018).

Assays:
[1] = tested on: platelet counts in patients with ITP; settings: Podolanczuk et al, Blood (2009); cited from earlier work
Aurora B (AURB) = Aurora B (AURB) (Homo sapiens (Human), UniProt Q96GD4); settings: Thoma et al, Bioorganic & Medicinal Chemistry Letters (2015); cited from earlier work
Aurora B (AURB), sequence (Q96GD4 whole entry): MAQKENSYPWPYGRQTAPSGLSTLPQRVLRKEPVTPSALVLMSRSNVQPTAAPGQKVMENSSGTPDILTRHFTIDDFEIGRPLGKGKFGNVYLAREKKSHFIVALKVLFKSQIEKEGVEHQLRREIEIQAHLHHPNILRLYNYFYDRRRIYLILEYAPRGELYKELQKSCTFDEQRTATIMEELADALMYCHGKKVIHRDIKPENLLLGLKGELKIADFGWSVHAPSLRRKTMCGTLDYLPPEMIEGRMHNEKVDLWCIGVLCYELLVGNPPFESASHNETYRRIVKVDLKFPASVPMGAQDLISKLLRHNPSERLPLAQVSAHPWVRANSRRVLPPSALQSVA

SMILES | platelet counts [1] | inhibition of Aurora B (AURB) (Aurora B (AURB))
COc1cc(Nc2ncc(F)c(Nc3ccc4c(n3)N(COP(=O)(O)O)C(=O)C(C)(C)O4)n2)cc(OC)c1OC [Example R788] | improved platelet counts | –
C[C@@H](Oc1cc(-c2cnn(C3CC3)c2)cc2nn(C)c(F)c12)[C@H]1CNC(=O)C1 [compound No. 5] | – | inhibited Aurora B
